Data set [1] has as its system Human CD34-derived progenitor cells. Nature of the data set: Human plasma recalcification (clotting) assay with prothrombotic cells. As to conditions: for effect on cell-promoted fibrin clot formation: cells pre-incubated with agent and washed. It is filed as cell-based. As for the experimental part:
Human plasma preparation: Human blood was drawn from volunteers with heparin and human plasma prepared by centrifugation, before storage at −80° C.
Human plasma recalcification assay (based on Lin et al Transplantation, 86(5):702-9, 2008): Human CD34-derived progenitor cells were suspended in 50 μl Tris-buffered saline and mixed with 100 μl of normal human plasma (Sigma) in glass tubes (Corning, Corning, N.Y.). Ten (10) μl of 250 mM CaCl2 in Tris-buffered saline combined with 90 μl phospholipids (Diagnostic Reagents, Oxford, UK) were added, and the tube incubated at 37° C. in a water bath—the time for a fibrin clot to form was determined in triplicate, during which time the tubes were continuously agitated by tilting. In some assays, cells were incubated with 200 uL of Compound 1 (50 uM) for 30 min at 4° C. before washing twice and inclusion in the clotting assay.

Data set [2] can be described thus: Solubility observed during preparation. It is filed as physicochemical. As to the method:
N-myristoyl-GSSKSPSKKKKKKPGDC(S-2-thiopyridyl)-amide (containing SEQ ID NO. 4) (Smith R, Biochem. Soc. Transactions, 30: 1037-41, 2002) was prepared by solid phase synthesis. 0.1 ml of a solution of this conjugate (10 mg/ml) in DMSO was added to a solution of HLL-1 in PBS (4.8 mM, 0.2 ml). The mixture was held at 24° C. for 1 h and the concentration of 2-thiopyridine released calculated from the absorbance at 343 nm. […] After a further 30 min at 24° C., approximately 84% of the HLL peptide had reacted. The mixture was diluted to 2 ml with PBS (slight cloudiness was observed) and then concentrated using a Vivaspin 2 3 kDa cutoff PES membrane cartridge at 2500 rpm/4° C./90 min. […] Compound 3 has a theoretical molecular weight of 4403 daltons.

In data set [3] the target is human thrombin (Homo sapiens, UniProt P00734). As to the kind of experiment: GPBC assay: compound bound to guinea pig erythrocytes against exogenous human thrombin. It is filed as cell-based. As to conditions: inhibitors 1 uM at cell-binding step, normalised for cell number. As to the method: Method and results. Guinea Pig Blood Cells (GPBCs Harlan, UK) were extensively washed with Gelatin Veronal Buffer (GVB, Sigma G6514). A fixed volume of cell suspension (100 ul containing about 10^8 cells) was then diluted 1:1 with GVB before Compounds 1 or 2 were added; control HLL was used at the same final concentration. Cells were incubated for 10 min at ambient temperature with gentle agitation. Three washes with GVB were performed (each with at least 500 ul GVB) before discarding the supernatant and leaving cell pellet as dry as possible. Cell pellet was then resuspended with GVB and hThrombin (between 0.01 and 0.1 units) was added: reaction volume was 460 ul. Cells were incubated for 3 min at 37° C. in a waterbath and after incubation, gently pelleted by centrifugation. Supernatant (˜400 ul) was recovered and spun again to remove any residual cells. Supernatant (380 ul) was transferred to a spectrophotometer and 70 µl of GVB and 50 ul thrombin substrate (1 mM in GVB) added. The sample adsorbance was recorded at 405 nm for 20 min at 25° C.
The cell-based thrombin inhibitory capacity of Compounds 1 and 2 were compared by normalising for cell number in the GPBC assay. […] Both values result from using inhibitors at 1 uM final concentration of the compounds at the cell-binding step.

In data set [4] the test system is RBCs. As to the kind of experiment: Internalisation by 2-colour FACS on RBCs. It is filed as cell-based. As to the method: To gain insight into internal versus external exposure of the compounds, cells treated with these materials were incubated with an antibody raised against hirudin (anti Hir-mAb) which cross-reacts with the HLL-1 peptide sequence. Compounds located on the outside of cells were detected by FACS using this antibody in combination with a secondary phycoerythrin (PE)-conjugated antibody, at different time points. This system enabled the ratios of externally presented compound (red PE plus green FAM fluorescence) and internalised compound (green fluorescence only) to be estimated.

Data set [5] relates to DA kidney graft in pre-sensitised Lewis recipients. It is filed as in vivo, rat. The text has this: Rat used were inbred male DA (RT1^a) and Lewis (RT1^i) at the age of 7-8 weeks and a weight of 150-200 g. The model of hyperimmune rejection was based on renal allografts from MHC Class I disparate donors and recipients with modifications to enable life-sustaining renal transplantation. Prior to transplantation, Lewis recipients were pre-sensitised by sequential grafting of three 2×2 cm full thickness skin DA grafts placed to the recipient's dorsal back. The first two skin transplants were received biweekly, followed by a four week period during which alloantibody reached its peak (data not shown), followed by the placement of a third skin graft.
Seven to ten days after the third skin graft, Lewis recipients received a DA kidney graft which had been perfused with different concentrations of Compound 1 (0.1-5 μM) and either flushed or not with Soltran solution (see above).
For the recipient preparation, a midline laparotomy was performed followed by removal of the left kidney. Microaneurysm clips (Johnson & Johnson, UK) were used to clamp the renal vein and artery. The donor kidney was transplanted orthotopically in an end to end anastomosis of the renal vein, artery and ureter using 10-0 sutures (BEAR MEDIC Corp, Japan). The donor and the recipient preparations were taking place simultaneously thus eliminating any cold ischemia. At the end of warm ischemia time, which was 30 minutes, the clips were removed and blood flow was restored to the transplanted kidney. Finally, a second native nephrectomy was performed making the transplanted kidney life-sustaining.
APT070 is a 23 kDa fragment of human complement receptor type 1(CR1) described in WO 98/0245. […] The inventors assessed the effects of these agents in the RATx model as a preliminary to combination studies with Compound 1. […]

Where “and” joins values, the source holds several entries; their conditions need not be identical. Equal values may be shown once. Where no end group is shown, it is not given here. The star is where a group is joined. Myristoyl = CCCCCCCCCCCCCC(=O)* Where only a bound is given, the exact number is not on record here.

For `CC[C@H](C)[C@H](NC(=O)[C@H](CCC(=O)O)NC(=O)[C@H](CCC(=O)O)NC(=O)[C@H](Cc1ccccc1)NC(=O)[C@H](CC(=O)O)NC(=O)CNC(=O)[C@H](CC(=O)O)NC(=O)CNC(=O)CNC(=O)CNC(=O)CNC(=O)[C@@H]1CCCN1C(=O)[C@H](CCCNC(=N)N)NC(=O)[C@@H]1CCCN1C(=O)[C@H](N)Cc1ccccc1)C(=O)N1CCC[C@H]1C(=O)N[C@@H](CCC(=O)O)C(=O)N[C@@H](CCC(=O)O)C(=O)N[C@@H](Cc1ccc(O)cc1)C(=O)N[C@@H](CC(C)C)C(=O)NCC(=O)NCC(=O)N[C@@H](CS)C(N)=O` [HLL, reference compound], the “effect on cell-promoted fibrin clot formation” value in data set [1] was “little inhibition of cell-mediated clotting”.
“Conjugate of Anticoagulant Peptide HLL-1 with N-myristoyl-GSSKSPSKKKKKKPGDC(S-2-thiopyridyl)-amide (Myristoyl-GSSKSPSKKKKKKPGDC-NH2; not fully specified (residue 17); also: Cys S-2-thiopyridyl (activated form), conjugated to HLL-1 via Cys) [Compound 3]”: in data set [2], the “DMSO needed to maintain solubility” value is given as > 50 % v/v and the “solubility in aqueous buffers” value is given as “only limited solubility in aqueous buffers”.
“Conjugate of Anticoagulant Peptide HLL-1 with N-(α,ε bis-myristoyl lysine) SSKSPSKKDDKKPGDC-acid ({Myristoyl-K(myristoyl)}-SSKSPSKKDDKKPGDC-OH; also: C-terminal Cys disulfide-linked to HLL-1 peptide) [Compound 2]”: the “ratio Compound 2/Compound 1 for the specific cell inhibition capacity” value is recorded as 2.1 in data set [3] (0.05 U of thrombin) and 1.3 in data set [3] (0.1 U of thrombin). For the same compound, the total labelled cells in data set [4] is given as 98%. Further, in data set [4] (after 1 h), the externally detected percentage result was “around 65%”. The “cells red and green (compound displayed on outer cell membrane)” value in data set [4] (initially) amounted to 82%.
Regarding “Conjugate of Anticoagulant Peptide HLL-1 with 1,2-distearoyl-sn-glycero-3-phosphoethanolamine-N-[2-thiopropionyl(polyethyleneglycol)-2000] (FPRPGGGGDGDFEEIPEEYLGGC; not fully specified) [Compound 1]”, the survival after transplantation in data set [5] (donor kidney perfused with 2 uM, flushed, controls did not survive longer than 48 h) was 5 to 6 days. For the same compound, the BUN deterioration entry in data set [5] (donor kidney perfused with 2 uM, flushed, versus control) is recorded as “deterioration was significantly slower”. Moreover, in data set [5] (rat, in vivo), the “threshold concentration for bleeding” value is “around 10 nM”. Further, the “time for a fibrin clot to form, mean of three tubes” value in data set [1] (cells pre-incubated with Compound 1 (50 uM) 30 min at 4° C., washed twice, re-calcified human plasma) amounted to 172 s. The “time for a fibrin clot to form, single tube” value in data set [1] (cells pre-incubated with Compound 1 (50 uM) 30 min at 4° C., washed twice, re-calcified human plasma, listed as C.1) was 169 s and 172 s and 175 s. Besides, the “effect on cell-promoted fibrin clot formation” value in data set [1] was “inhibited this effect”.

The record behind these values is patent US9255263B2, “Antithrombotic compounds” (King's College London, priority 2009, dated 2016).
